Results taken from patent US20240082222A1, “4-CHLORO-N-[2-[(4-CHLOROPHENYL)METHYL]-3-OXO-1,2,4-THIADIAZOL-5-YL]BENZAMIDE FOR USE IN MEDICINE” (Betagenon AB, priority 2021, published 2024).
Values joined by “and” are separate entries in the source; they are usually repeats but may differ in a detail not shown here. Identical values can stand only once. Counter-ions that a name gives are not always drawn. Like-named read-outs stand apart in the source and are kept apart here.

Experiment: Pharmacokinetic study in humans, sodium salt tablets, multiple dose (Example 3)
Format: in vivo, human
Method: An open, randomised, parallel-group study was conducted to evaluate the exposure and safety of 4-chloro-N-[2-[(4-chlorophenyl)methyl]-3-oxo-1,2,4-thiadiazol-5-yl]benzamide sodium salt tablets in doses of 212.12 mg and 424.24 mg (equivalent to 200 mg and 400 mg doses of 4-chloro-N-[2-[(4-chlorophenyl)methyl]-3-oxo-1,2,4-thiadiazol-5-yl]benzamide) at steady state in healthy volunteers (hereafter referred to as subjects).
Each “400 mg” tablet contained 424.24 mg of a sodium salt of 4-chloro-N-[2-[(4-chlorophenyl)methyl]-3-oxo-1,2,4-thiadiazol-5-yl]benzamide (Compound of formula II) which corresponds to 400 mg of the parent compound 4-chloro-N-[2-[(4-chlorophenyl)methyl]-3-oxo-1,2,4-thiadiazol-5-yl]benzamide.
Twenty (20) subjects were randomised (1:1) to treatment with either 200 mg (1 tablet of 200 mg) or 400 mg (1 tablet of 400 mg) of the test substance.
A screening visit (Visit 1) was performed within 28 days before randomisation and the start of IMP administration. The subjects arrived at the research clinic on Day 1 (Visit 2), randomised, and received the first administration of the test substance (200 mg or 400 mg as randomised).
The subjects returned to the clinic in the morning of Day 2 (Visit 3) for pre-dose PK sampling and subsequent administration of the test substance.
Before leaving the clinic, the subjects were provided with the test substance for 18 days once daily self-administration at home (Day 3 to Day 20).
After 18 days of home-based self-administration of the test substance, the subjects returned to the clinic in the morning of Day 21 (Visit 5) for pre-dose PK sampling and subsequent administration of the last dose of the test substance. The subjects remained at the clinic for at least 8 hours post-dose for safety assessments and additional PK sampling. In the morning of Day 22 (Visit 6), the subjects came for a last visit to the clinic for a final PK sample 24 hours after the last dose.
Venous blood samples (approximately 5 mL) for the determination of plasma concentrations of 4-chloro-N-[2-[(4-chlorophenyl)methyl]-3-oxo-1,2,4-thiadiazol-5-yl]benzamide after administration of the test substance were collected through an indwelling venous catheter on Days 2, 21 and 22.
The blood samples were collected in pre-labelled Li-Heparin tubes. All the collected blood samples were be centrifuged at 1500 G for 10 minutes to separate plasma within 60 minutes from the sample is drawn. The separated plasma from each blood sample was be divided into 2 aliquots in pre-labelled polypropylene cryotubes (A and B samples, approximately 750 μL in each tube) and frozen at <−70° C.
Samples for determination of plasma concentrations of 4-chloro-N-[2-[(4-chlorophenyl)methyl]-3-oxo-1,2,4-thiadiazol-5-yl]benzamide were analysed by Lablytica Life Science AB, Uppsala, Sweden by means of a validated LS-MS/MS method.
The data of plasma concentration to respective time points for the analyte (4-chloro-N-[2-[(4-chlorophenyl)methyl]-3-oxo-1,2,4-thiadiazol-5-yl]benzamide) were used for the pharmacokinetic analysis. Pharmacokinetic analysis was performed using non-compartmental analysis (NCA) module of Phoenix WinNonlin 8.1 software to determine the following pharmacokinetic parameters after multiple dose administration of test substance.
Primary endpoint: • Cmax, AUC0-last, Tmax at steady state Day 21 in each dose group.

[1] = 200 mg Dose Group, tablet once daily, Day 21, individual subjects, listed as O304 Na salt
[2] = 212 mg sodium salt in tablet form
[3] = 400 mg Dose Group, tablet once daily, Day 21, individual subjects, listed as O304 Na salt

O=C(Nc1nc(=O)n(Cc2ccc(Cl)cc2)s1)c1ccc(Cl)cc1 [Compound of formula II, sodium salt of 4-chloro-N-[2-[(4-chlorophenyl)methyl]-3-oxo-1,2,4-thiadiazol-5-yl]benzamide]
Tlast (200 mg Dose Group, tablet once daily, Day 21, Mean): 24.01 h
Tlast (200 mg Dose Group, tablet once daily, Day 21, Median): 24.0 h
Clast [1]: 80.1 µg/mL and 109 µg/mL and 144 µg/mL and 51.7 µg/mL and 76.9 µg/mL and 62.3 µg/mL and 65.1 µg/mL and 81.3 µg/mL and 53.4 µg/mL
Tlast [1]: 24.0 h (8×) and 24.1 h
Tmax [1]: 24.0 h and 0.00 h and 2.00 h and 4.00 h
increase in systemic accumulation from Day 1 to Day 21 [2]: approximately seven-fold
increase in systemic exposure, tablet compared to capsules containing 200 mg [2]: up to two-fold
Tlast (400 mg Dose Group, tablet once daily, Day 21, Mean): 24.07 h
Tlast (400 mg Dose Group, tablet once daily, Day 21, Median): 24.0 h
AUClast [3]: 4790 µg·h/mL and 3600 µg·h/mL and 2450 µg·h/mL and 2950 µg·h/mL and 3550 µg·h/mL and 2800 µg·h/mL and 2460 µg·h/mL
Clast [3]: 116 µg/mL and 201 µg/mL and 151 µg/mL and 96.7 µg/mL and 135 µg/mL and 144 µg/mL and 111 µg/mL and 106 µg/mL and 100 µg/mL
Cmax [3]: 201 µg/mL and 169 µg/mL and 106 µg/mL and 135 µg/mL and 168 µg/mL and 124 µg/mL and 105 µg/mL
Tlast [3]: 24.0 h (6×) and 24.4 h and 24.1 h (2×)
Tmax [3]: 24.4 h and 4.00 h and 8.02 h and 24.1 h and 24.0 h
increase in systemic accumulation from Day 1 to Day 21 (424 mg sodium salt in tablet form): approximately five-fold
AUC(0-t) (human, plasma, oral, 200 mg, 200 mg Dose Group, tablet once daily, Day 21, Mean): 1940 µg·h/mL
concentration at 24 h (human, plasma, oral, 200 mg, 200 mg Dose Group, tablet once daily, Day 21, Mean, read-out: Clast): 80.4 µg/mL
Cmax (human, plasma, oral, 200 mg, 200 mg Dose Group, tablet once daily, Day 21, Mean, read-out: Cmax): 86.8 µg/mL
Tmax (human, plasma, oral, 200 mg, 200 mg Dose Group, tablet once daily, Day 21, Mean, read-out: Tmax): 10.9 h
AUC(0-t) (human, plasma, oral, 200 mg, 200 mg Dose Group, tablet once daily, Day 21, Median): 1720 µg·h/mL
concentration at 24 h (human, plasma, oral, 200 mg, 200 mg Dose Group, tablet once daily, Day 21, Median, read-out: Clast): 76.9 µg/mL
Cmax (human, plasma, oral, 200 mg, 200 mg Dose Group, tablet once daily, Day 21, Median, read-out: Cmax): 77.1 µg/mL
Tmax (human, plasma, oral, 200 mg, 200 mg Dose Group, tablet once daily, Day 21, Median, read-out: Tmax): 8 h
concentration at 24 h (human, plasma, oral, 200 mg, 200 mg dose group (212.12 mg sodium salt tablet once daily), 24 h after dose of Day 1, read-out: Clast at 24 hours, Mean): 11.4 µg/mL
concentration at 24 h (human, plasma, oral, 200 mg, 200 mg dose group (212.12 mg sodium salt tablet once daily), 24 h after dose of Day 1, read-out: Clast at 24 hours, Median): 11.2 µg/mL
concentration at 24 h (human, plasma, oral, 200 mg, 200 mg dose group (212.12 mg sodium salt tablet once daily), 24 h after dose of Day 21, read-out: Clast at 24 hours, Mean): 80.4 µg/mL
concentration at 24 h (human, plasma, oral, 200 mg, 200 mg dose group (212.12 mg sodium salt tablet once daily), 24 h after dose of Day 21, read-out: Clast at 24 hours, Median): 76.9 µg/mL
AUC(0-t) (human, plasma, oral, 400 mg, 400 mg Dose Group, tablet once daily, Day 21, Mean): 3110 µg·h/mL
concentration at 24 h (human, plasma, oral, 400 mg, 400 mg Dose Group, tablet once daily, Day 21, Mean, read-out: Clast): 129 µg/mL
Cmax (human, plasma, oral, 400 mg, 400 mg Dose Group, tablet once daily, Day 21, Mean, read-out: Cmax): 138 µg/mL
Tmax (human, plasma, oral, 400 mg, 400 mg Dose Group, tablet once daily, Day 21, Mean, read-out: Tmax): 11.2 h
AUC(0-t) (human, plasma, oral, 400 mg, 400 mg Dose Group, tablet once daily, Day 21, Median): 2930 µg·h/mL
concentration at 24 h (human, plasma, oral, 400 mg, 400 mg Dose Group, tablet once daily, Day 21, Median, read-out: Clast): 116 µg/mL
Cmax (human, plasma, oral, 400 mg, 400 mg Dose Group, tablet once daily, Day 21, Median, read-out: Cmax): 132 µg/mL
Tmax (human, plasma, oral, 400 mg, 400 mg Dose Group, tablet once daily, Day 21, Median, read-out: Tmax): 4.02 h
AUC(0-t) (human, plasma, oral, 400 mg, 400 mg Dose Group, tablet once daily, Day 21, individual subjects): 2930 µg·h/mL
Cmax (human, plasma, oral, 400 mg, 400 mg Dose Group, tablet once daily, Day 21, individual subjects, read-out: Cmax): 132 µg/mL
concentration at 24 h (human, plasma, oral, 400 mg, 400 mg dose group (424.24 mg sodium salt tablet once daily), 24 h after dose of Day 1, read-out: Clast at 24 hours, Mean): 24.9 µg/mL
concentration at 24 h (human, plasma, oral, 400 mg, 400 mg dose group (424.24 mg sodium salt tablet once daily), 24 h after dose of Day 1, read-out: Clast at 24 hours, Median): 21.5 µg/mL
concentration at 24 h (human, plasma, oral, 400 mg, 400 mg dose group (424.24 mg sodium salt tablet once daily), 24 h after dose of Day 21, read-out: Clast at 24 hours, Mean): 129 µg/mL
concentration at 24 h (human, plasma, oral, 400 mg, 400 mg dose group (424.24 mg sodium salt tablet once daily), 24 h after dose of Day 21, read-out: Clast at 24 hours, Median): 116 µg/mL
peak blood plasma concentration (repeated dosing of 212 mg in the form of a tablet): ≥ 85 µg/mL
accumulation in the blood plasma after repeat dosing (tablets, once daily): substantial accumulation
